Assay results from patent publication US4201783A, “Antidepressant substituted hexahydro benzopyrano [3,2-c] pyridines” (Lipha Lyonnaise Industrielle Pharmaceutique, priority 1977, dated 1980).
Structures can show the parent of a compound that is named as a salt.

Experiments:
ptosis with reserpine = assay: inhibition of reserpine ptosis in Swiss mice (B. Rubin et al.); format: in vivo; details: simultaneously with reserpine 5 mg/kg intraperitoneally, ptosis measured at 1, 1.5 and 2 hours; for ED50: Mus musculus, po, read-out: ED50 (dose inhibiting reserpine ptosis by an average of 50%); for ED50 (dose inhibiting reserpine ptosis by an average of 50%): oral
Method: This mood-altering activity can be determined by standard, routine tests well known specialists. […] In Swiss mice, a compound was administered orally simultaneously with reserpine given interperitoneally at a dose of 5 mg/kg. Ptosis measured according to B. Rubin et al. (J. Pharmacol. Exp. […] (3-dimethylamino propylidene-5-dibenzo [a,d] 1,4-cycloheptadiene hydrochloride).

in vivo = details: mouse, po
Swiss mice = details: oral
[1] = clinical test of the medication containing the active compound of Example 5 A; format: in vivo, human
Excerpt: The following are observations recorded during a clinical test of the medication containing the active compound of Example 5 A.

[2] = LD50, administered orally, Swiss mice
[3] = Case No. 1, 5 mg daily for 30 days
[4] = Case No. 2, 20 mg daily for 30 days
[5] = Case No. 3, 10 mg daily for 20 days
[6] = Case No. 4, 25 mg daily for 45 days
[7] = Case No. 5, 5 mg daily for 30 days
[8] = Case No. 6, 25 mg daily for 30 days

Compound `CN1CCC23NC(=O)CC(c4cc(F)ccc4O2)C3C1` (centres unmarked) [Example 8, 4a-amino-8-fluoro-2-methyl-1,2,3,4,4a,10a-hexahydro[10 H]benzopyrano[3,2-c]pyrid-10-ylacetic acid lactam] has an ED50 (ptosis with reserpine) of 1 mg/kg and an LD50 (in vivo; [2]) of 1080 mg/kg.

With `CN1CCC23NC(=O)CC(c4cc([N+](=O)[O-])ccc4O2)C3C1` (centres unmarked) [Example 15, 4a-amino-8-nitro-2-methyl-1,2,3,4,4a,10a-hexahydro[10 H]benzopyrano[3,2-c]pyrid-10-ylacetic acid lactam] the ED50 (ptosis with reserpine) was 0.6 mg/kg and the LD50 (in vivo; [2]) was 2470 mg/kg.

`CN1CCC23NC(=O)CC(c4cc(Br)ccc4O2)C3C1` (centres unmarked) [Example 6, 4a-amino-8-bromo-2-methyl-1,2,3,4,4a,10a-hexahydro[10 H]benzopyrano[3,2-c]pyrid-10-ylacetic acid lactam] gave an ED50 (ptosis with reserpine) of 0.1 mg/kg and an LD50 (in vivo; [2]) of 720 mg/kg.

With `CN1CCC23NC(=O)CC(c4ccccc4O2)C3C1` (single isomer, unassigned) [Example 1 A, 4a-amino-2-methyl-1,2,3,4,4a,10a-hexahydro [10 H] benzopyrano-[3,2-c]pyrid-10-yl acetic acid lactam] the “ED50 (dose inhibiting reserpine ptosis by an average of 50%)” value (ptosis with reserpine) was 6 mg/kg and the “LD50, administered orally” value (Swiss mice) was 2,700 mg/kg.

In the case of `CCOC(=O)N1CCC23NC(=O)CC(c4cc(Cl)ccc4O2)C3C1` (centres unmarked) [Example 27, 4a-amino-8-chloro-2-ethoxycarbonyl-1,2,3,4,4a,10a-hexahydro[10 H]benzopyrano[3,2-c]pyrid-10-ylacetic acid lactam], the ED50 (ptosis with reserpine) is reported as 0.37 mg/kg and the LD50 (in vivo) is reported as > 1600 mg/kg.

In the case of `CN(C)CCC=C1c2ccccc2CCc2ccccc21` [Amitriphthyline, 3-dimethylamino propylidene-5-dibenzo [a,d] 1,4-cycloheptadiene hydrochloride, reference compound], the ED50 (ptosis with reserpine) is reported as 10 mg/kg and the LD50 (in vivo) is reported as 150 mg/kg.

In the case of `CN1CCC23NC(=O)CC(c4ccccc4O2)C3C1` (single isomer, unassigned) [Example 1 B, 4a-amino-2-methyl-1,2,3,4,4a,10a-hexahydro [10 H] benzopyrano-[3,2-c]pyrid-10-yl acetic acid lactam], the “ED50 (dose inhibiting reserpine ptosis by an average of 50%)” value (ptosis with reserpine) is reported as 24 mg/kg and the “LD50, administered orally” value (Swiss mice) is reported as 600 mg/kg.

With `COc1ccc2c(c1)C1CC(=O)NC3(CCN(C)CC13)O2` (single isomer, unassigned) [Example 18, 4a-amino-8-methoxy-2-methyl-1,2,3,4,4a,10a-hexahydro[10 H]benzopyrano[3,2-c]pyrid-10-ylacetic acid lactam] the ED50 (ptosis with reserpine) was 0.67 mg/kg and the LD50 (in vivo; [2]) was 1200 mg/kg.

With `CN1CCC23NC(=O)CC(c4cc(Cl)ccc4O2)C3C1` (single isomer, unassigned) [Example 5 B, 4a-amino-8-chloro-2-methyl-1,2,3,4,4a,10a-hexahydro[10 H]benzopyrano[3,2c]pyrid-10-ylacetic acid lactam] the “ED50 (dose inhibiting reserpine ptosis by an average of 50%)” value (ptosis with reserpine) was 11 mg/kg.

With `CN(C)CCCN1c2ccccc2CCc2ccccc21` [Imipramine, N-(3-dimethylaminopropyl) iminodibenzyl hydrochloride, reference compound] the ED50 (ptosis with reserpine) was 2.9 mg/kg.

In the case of `COC(=O)N1CCC23NC(=O)CC(c4cc(Cl)ccc4O2)C3C1` (centres unmarked) [Example 28, 4a-amino-8-chloro-2-methoxycarbonyl-1,2,3,4,4a,10a-hexahydro[10 H]benzopyrano[3,2-c]pyrid-10-ylacetic acid lactam], the ED50 (ptosis with reserpine) is reported as 0.25 mg/kg and the LD50 (in vivo) is reported as 1100 mg/kg.

For `CN1CCC23NC(=O)CC(c4cc(Cl)ccc4O2)C3C1` (single isomer, unassigned) [Example 5 A, 4a-amino-8-chloro-2-methyl-1,2,3,4,4a,10a-hexahydro[10 H]benzopyrano[3,2c]pyrid-10-ylacetic acid lactam], the “ED50 (dose inhibiting reserpine ptosis by an average of 50%)” value (ptosis with reserpine) was 0.04 mg/kg, the Activity ([1]; Case No. 1, pre-senile depression, 5 mg daily for 30 days, with NOZINAN-SUREPTIL) was “Weight gain. Improvement of mood and sociability” and the “Tolerance, biological” value [1, 3] was “N.A.D”. The “Tolerance, clinical” value [1, 3] was “N.A.D”, the Activity ([1]; Case No. 2, post-neuroleptic depression with schizophrenia, 20 mg daily for 30 days, with NOZINAN-ARTANE-GARDENAL) was “Weight gain. Improvement of mood and sleep. Reduced anxiety. Relief of hypochondriac complaints” and the “Tolerance, biological” value [1, 4] was “N.A.D”. For the same compound, the “Tolerance, clinical” value [1, 4] was “N.A.D”, the Activity ([1]; Case No. 3, serious hypochondriac depressive syndrome, 10 mg daily for 20 days, with MEPRONIZINE) was “The patient was less preoccupied with their body. Decrease of compulsive washing. Improvement of social behavior” and the “Tolerance, biological” value [1, 5] was “N.A.D”. For the same compound, the “Tolerance, clinical” value [1, 5] was “N.A.D”, the Activity ([1]; Case No. 4, melancholic depressive relapse, 25 mg daily for 45 days, with NOZINAN 25 mg) was “Improvement of mood. Less pessimistic attitude. Less frequent crying. Less pronounced feeling of guilt” and the “Tolerance, biological” value [1, 6] was “N.A.D”. The “Tolerance, clinical” value [1, 6] was “N.A.D”, the Activity ([1]; Case No. 5, depressive syndrome in an alcoholic of the melancholic type, 5 mg daily for 30 days, with vitamins, NOZINAN (50 mg), ARTANE 5) was “Improvement of mood. Less frequent crying. Improved appetite” and the “Tolerance, biological” value [1, 7] was “N.A.D”. The “Tolerance, clinical” value [1, 7] was “slight dizziness and nausea”, the Activity ([1]; Case No. 6, hypochondriac delirium with anxiety, 25 mg daily for 30 days, with ARTANE 10 mg […]) was “Decrease of hypochondriac complaints. Patient less irritable and apprehensive” and the “Tolerance, biological” value [1, 8] was “N.A.D”. The “Tolerance, clinical” value [1, 8] was “slight vertigo”.

`CN1CCC23Oc4ccc(Cl)cc4C(CC(=O)N2C)C3C1` (centres unmarked) [Example 36, 8-chloro-2-methyl-4a-methylamino-1,2,3,4,4a,10a-hexahydro[10 H]benzopyrano[3,2-c]pyrid-10-ylacetic acid lactam] gave an ED50 (ptosis with reserpine) of 0.7 mg/kg and an LD50 (in vivo; [2]) of 600 mg/kg.

With `CC(=O)N1CCC23NC(=O)CC(c4ccccc4O2)C3C1` (centres unmarked) [Example 9, 4a-amino-2-acetyl-1,2,3,4,4a,10a-hexahydro[10 H]benzopyrano[3,2-c]pyrid-10-ylacetic acid lactam] the ED50 (ptosis with reserpine) was 5 mg/kg and the LD50 (in vivo; [2]) was > 3200 mg/kg.

Compound `CN1CCC23NC(=O)CC(c4c(ccc5ccccc45)O2)C3C1` (centres unmarked) [Example 10, 7a-amino-10-methyl-7a,8,9,10,11,11a-hexahydro[12 H]benzo[f]benzopyrano[3,2-c]pyrid-12-ylacetic acid lactam] has an ED50 (ptosis with reserpine) of 1.8 mg/kg and an LD50 (in vivo; [2]) of 600 mg/kg.

`Cc1ccc2c(c1)C1CC(=O)NC3(CCN(C)CC13)O2` (centres unmarked) [Example 7, 4a-amino-28-dimethyl-1,2,3,4,4a,10a-hexahydro[10 H]benzopyrano[3,2-c]pyrid-10-ylacetic acid lactam] showed an ED50 (ptosis with reserpine) of 3.5 mg/kg and an LD50 (in vivo; [2]) of 1200 mg/kg.
